Test results: US12428406B2 (PMV Pharmaceuticals, Inc., priority 2019, dated 2025)

What follows are compounds tested against T1, p53 Y220C (Homo sapiens, UniProt P04637, Y220C) (assay: In vitro DNA binding activity assay (HTRF / TR-FRET): stabilization of p53 Y220C and increase of its DNA binding activity). Conditions: recombinant His-tagged p53 Y220C DNA binding domain (aa 94-312), biotin-labeled consensus DNA, incubated at 27° C. or 29° C. for 60 min.
T1 construct: The recombinant protein was a truncation mutant containing only amino acids 94-312 of p53; made in house; host or cells: E. coli
T1 sequence (P04637 94-312, change not shown): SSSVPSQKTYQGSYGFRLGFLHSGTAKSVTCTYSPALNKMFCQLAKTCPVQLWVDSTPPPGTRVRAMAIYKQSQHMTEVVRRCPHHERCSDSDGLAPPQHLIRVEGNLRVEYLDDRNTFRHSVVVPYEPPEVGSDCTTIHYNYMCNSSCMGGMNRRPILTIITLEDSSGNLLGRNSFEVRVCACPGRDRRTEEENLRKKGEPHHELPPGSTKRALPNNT
Type: biochemical
Outline: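 Test compounds, diluted 3-fold in DMSO from 4.5 mM stocks, were incubated with bacterially expressed His-tagged p53 Y220C at room temperature for 15 min, and after a further step for 20 min. DNA binding was detected by time-resolved FRET between APC and europium labels. SC150 marks the concentration increasing binding by 50%.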

SMILES	SC150 (concentration of the compound required to increase the DNA binding activity by 50%)
COCC(O)CN1CCC(Nc2cccc3c2cc(C#CCNc2ccc(C(=O)O)cc2OC)n3CC(F)(F)F)CC1 (centres unmarked) [Compound 705A, 4-{[3-(4-{[1-(2-hydroxy-3-methoxypropyl)piperidin-4-yl]amino}-1-(2,2,2-trifluoroethyl)-1H-indol-2-yl)prop-2-yn-1-yl]amino}-3-methoxybenzoic acid]	+ (+ = 0 μM ≤ SC150 < 0.05 μM)
COc1cc(S(C)(=O)=O)ccc1NCC#Cc1cc2c(N[C@H]3CCN(C(C)C)C[C@H]3F)cccc2n1CC(F)(F)F (racemic) [Compound 795A, (rac)-N-[(3R,4S)-3-fluoro-1-(propan-2-yl)piperidin-4-yl]-2-{3-[(4-methanesulfonyl-2-methoxyphenyl)amino]prop-1-yn-1-yl}-1-(2,2,2-trifluoroethyl)-1H-indol-4-amine]	+ (+ = 0 μM ≤ SC150 < 0.05 μM)
CS(=O)(=O)c1ccc(NCC#Cc2cc3c(N[C@H]4CC[C@H](N5CC6(COC6)C5)CC4)cccc3n2CC(F)(F)F)c(O)c1 [Compound 214A, 5-methanesulfonyl-2-{[3-(4-{[(1R,4R)-4-{2-oxa-6-azaspiro[3.3]heptan-6-yl}cyclohexyl]amino}-1-(2,2,2-trifluoro-ethyl)-1H-indol-2-yl)prop-2-yn-1-yl]amino}phenol]	+ (+ = 0 μM ≤ SC150 < 0.05 μM)
COCCOc1cc(S(C)(=O)=O)ccc1NCC#Cc1cc2c(N[C@H]3CC[C@H](N4CC5(COC5)C4)CC3)cccc2n1CC(F)(F)F [Compound 220A, 2-(3-{[4-methane-sulfonyl-2-(2-methoxyethoxy)phenyl]amino}prop-1-yn-1-yl)-N-[(1R,4R)-4-{2-oxa-6-azaspiro[3.3]heptan-6-yl}cyclohexyl]-1-(2,2,2-trifluoroethyl)-1H-indol-4-amine]	+ (+ = 0 μM ≤ SC150 < 0.05 μM)
COc1cc(S(C)(=O)=O)ccc1NCC#Cc1cc2c(N[C@H]3CCOC[C@H]3F)cccc2n1CC(F)(F)F [Compound 1025A, N-[(3S,4S)-3-fluorooxan-4-yl]-2-{3-[(4-methanesulfonyl-2-methoxyphenyl)amino]prop-1-yn-1-yl}-1-(2,2,2-trifluoroethyl)-1H-indol-4-amine]	+ (+ = 0 μM ≤ SC150 < 0.05 μM)
CNC(=O)c1ccc(NCC#Cc2cc3c(NC4CCN(CCOC)CC4)cccc3n2CC(F)(F)F)c(OC)c1 [Compound 616A, 3-methoxy-4-{[3-(4-{[1-(2-methoxyethyl)piperidin-4-yl]amino}-1-(2,2,2-trifluoroethyl)-1H-indol-2-yl)prop-2-yn-1-yl]amino}-N-methylbenzamide]	+ (+ = 0 μM ≤ SC150 < 0.05 μM)
COc1cc(-c2ccncc2)ccc1NCC#Cc1cc2c(NC3CCN(C)CC3)cccc2n1CC(F)(F)F [Compound 504A, 2-(3-{[2-methoxy-4-(pyridin-4-yl)phenyl]amino}prop-1-yn-1-yl)-N-(1-methylpiperidin-4-yl)-1-(2,2,2-trifluoroethyl)-1H-indol-4-amine]	+ (+ = 0 μM ≤ SC150 < 0.05 μM)
COC[C@H](O)CN1CC[C@H](Nc2cccc3c2cc(C#CCNc2ccc(C(=O)OC)cc2OC)n3CC(F)(F)F)[C@H](F)C1 [Compound 879A]	+ (+ = 0 μM ≤ SC150 < 0.05 μM)
COCC(O)CN1CCC(Nc2cccc3c2cc(C#CCNc2ccc(Cl)cc2OC)n3CC(F)(F)F)CC1 (centres unmarked) [Compound 716A, 1-{4-[(2-{3-[(4-chloro-2-methoxyphenyl)amino]prop-1-yn-1-yl}-1-(2,2,2-trifluoroethyl)-1H-indol-4-yl)amino]piperidin-1-yl}-3-methoxypropan-2-ol]	++ (++ = 0.05 μM ≤ SC150 < 0.1 μM)
CNC(=O)c1ccc(NCC#Cc2cc3c(N[C@H]4CC[C@@H](N(C)C)CC4)cccc3n2CC(F)(F)F)c(OCCF)c1 [Compound 105A, 3-(2-fluoroethoxy)-N-methyl-4-{[3-(4-{[(1S,4S)-4-(dimethyl-amino)cyclohexyl]amino}-1-(2,2,2-trifluoro-ethyl)-1H-indol-2-yl)prop-2-yn-1-yl]amino}benzamide]	+ (+ = 0 μM ≤ SC150 < 0.05 μM)
CNS(=O)(=O)c1ccc(NCC#Cc2cc3c(N[C@H]4CC[C@H](N(C)C)CC4)cccc3n2CC(F)(F)F)c(OC)c1 [Compound 71A, 3-methoxy-N-methyl-4-{[3-(4-{[(1R,4R)-4-(dimethylamino)cyclohexyl]amino}-1-(2,2,2-trifluoroethyl)-1H-indol-2-yl)prop-2-yn-1-yl]amino}benzene-1-sulfonamide]	+ (+ = 0 μM ≤ SC150 < 0.05 μM)
COc1cc(C(=O)O)ccc1NCC#Cc1cc2c(NC3CCN(C4CC4)CC3)cccc2n1CC(F)(F)F [Compound 721A, 4-[(3-{4-[(1-cyclopropylpiperidin-4-yl)amino]-1-(2,2,2-trifluoroethyl)-1H-indol-2-yl}prop-2-yn-1-yl)amino]-3-methoxybenzoic acid]	+ (+ = 0 μM ≤ SC150 < 0.05 μM)
COc1cc(C(=O)NCCO)ccc1NCC#Cc1cc2c(NC3CCN(C)CC3)cccc2n1CC(F)(F)F [Compound 496A]	+ (+ = 0 μM ≤ SC150 < 0.05 μM)
COc1cc(S(N)(=O)=O)ccc1NCC#Cc1cc2c(NC3CCN(C[C@@H]4COC(=O)O4)CC3)cccc2n1CC(F)(F)F [Compound 562A, 3-methoxy-4-[(3-{4-[(1-{[(4R)-2-oxo-1,3-dioxolan-4-yl]methyl}piperidin-4-yl)amino]-1-(2,2,2-trifluoroethyl)-1H-indol-2-yl}prop-2-yn-1-yl)amino]benzene-1-sulfonamide]	+ (+ = 0 μM ≤ SC150 < 0.05 μM)
COCCOc1cc(S(C)(=O)=O)ccc1NCC#Cc1cc2c(NC3CCN(CC(O)COC)CC3)cccc2n1CC(F)(F)F (centres unmarked) [Compound 637A, 1-(4-{[2-(3-{[4-methanesulfonyl-2-(2-methoxyethoxy)phenyl]amino}prop-1-yn-1-yl)-1-(2,2,2-trifluoroethyl)-1H-indol-4-yl]amino}piperidin-1-yl)-3-methoxypropan-2-ol]	+ (+ = 0 μM ≤ SC150 < 0.05 μM)
COc1cc(S(N)(=O)=O)ccc1NCC#Cc1cc2c(NC3CCN(C)CC3)cc(F)cc2n1CC(F)(F)F [Compound 474A, 4-[(3-{6-fluoro-4-[(1-methylpiperidin-4-yl)amino]-1-(2,2,2-trifluoroethyl)-1H-indol-2-yl}prop-2-yn-1-yl)amino]-3-methoxybenzene-1-sulfonamide]	+ (+ = 0 μM ≤ SC150 < 0.05 μM)
COc1cc(S(C)(=O)=O)ccc1NCC#Cc1cc2c(N[C@H]3CCNC[C@H]3F)cccc2n1CC(F)(F)F [Compound 848A]	+ (+ = 0 μM ≤ SC150 < 0.05 μM)
